Experimental data reported in patent US4268630A, “Microbiological production of ketones from C3 -C6 alkanes” (priority 1979, dated 1981).

What was measured:
[1] = system: Methylobacterium organophilum XX (ATCC 27886); test: Oxidation of sec-alcohols to ketones by resting cell suspension; type: cell-based
Procedure: (§1) The pH of the nutrient medium was adjusted to 7.0 by the addition of acid or base and 50 ml. samples of the nutrient medium were charged into a plurality of 300 ml. shaker flasks. The shaker flasks were inoculated with an inoculating loop of cells from an agar plate containing homogeneous colonies of the microorganisms on the plate (the purity of the isolates was confirmed by microscopic examination). The isolates had been maintained on methanol (0.4% V/V) agar plates or on agar plates under an atmosphere of methane and air having a 1:1 V/V gas ratio which had been transferred every two weeks. For growth on methanol, the medium was supplemented with 0.4% methanol. For growth on methane, the gaseous phase of the inoculated flasks was replaced with a gas mixture comprised on methane and air having a ratio of 1:1 on a V/V basis. The inoculated flasks were sealed air-tight and were incubated on a rotary shaker of orbital radius 2.5 cm. at 250 rpm and at 30° C. for two days until turbidity in the medium had developed. The cells were harvested by centrifugation at 10,000×g. at 4° C. for 30 minutes. The cell pellet was washed twice with a 0.05 M phosphate buffer at a pH of 7.0 (containing 0.02 M MgCl2). The washed cells were then suspended in a 0.05 M phosphate buffer at pH 7.0.
(§2) A 0.5 ml. sample of each washed cell suspension (2 mg. cells) was put into 10 ml. vials at 4° C. which were sealed with a rubber cap. The gaseous phase of the vials was removed with vacuum and then was replaced with a gas mixture of the substrate reactant (i.e., alkane or secondary alcohol) and oxygen at a 1:1 V/V ratio. (In the case of a liquid substrate, i.e., secondary alcohol, 10 μl of the substrate was put in the 10 ml. vials). […] Samples of product (1-3 μl) were withdrawn periodically with a microsyringe and the products were analyzed by gas chromatography (ionization flame detector column).
(§3) The procedure in Example 1 was repeated wherein a plurality of the methane-utilizing methylotrophic microorganisms were each grown aerobically in a nutrient medium containing methane as the alcohol dehydrogenase enzyme inducer and as the major carbon and energy source for growth. The cells were harvested and washed as described in Example 1. The resting microbial cells of the induced methane-grown methane-utilizing methylotrophic microorganisms were then contacted with C3 -C6 secondary alcohols in a buffered solution by the procedure of Example 1.
(§4) In this example, the procedure in Example 1 was repeated except that a plurality of methane-utilizing methylotrophic microorganisms were each aerobically grown in a methanol-containing nutrient medium instead of a methane-containing medium. The nutrients in the medium were the same as indicated in Example 1 except that 0.4% V/V methanol was used as the alcohol dehydrogenase inducer and major source of carbon and energy for growth. Following growth, the cells were harvested and washed as described in Example 1. The resting cells of the induced methanol-grown methylotrophic microorganisms were then contacted with secondary alcohols in a buffered solution by the procedure described in Example 1.
(§5) The procedure in Example 1 was repeated except that the methylotrophic microorganisms were each aerobically grown in an alcohol dehydrogenase-inducing growth medium containing methylamine or methyl formate as the alcohol dehydrogenase enzyme inducer and growth substrate instead of methane. The nutrients in the medium were the same as indicated in Example 1 except that 0.4% V/V of the alcohol dehydrogenase-inducer growth substrate was used as the major carbon and energy source. The cells were harvested and washed as described in Example 1. The resting microbial cells were then contacted with C3 -C6 secondary alcohols in a buffered solution by the conversion procedure of Example 1.

[2] = system: Methylosinus trichosporium OB3b (NRRL B-11,196); test: as above; type: cell-based
Procedure: as §1, §2, §3, §4, §5

[3] = system: Methylobacter capsulatus Y (NRRL B-11,201); test: as above; type: cell-based
Procedure: as §1, §2, §3, §4

[4] = system: Methylococcus capsulatus, Texas (ATCC 19069); test: as above; type: cell-based
Procedure: as §1, §2, §3, §4

[5] = system: Methylocystis parvus OBBP (NRRL B-11,198); test: as above; type: cell-based
Procedure: as §1, §2, §3, §4

[6] = system: Methylomonas methanica S1 (NRRL B-11,199); test: as above; type: cell-based
Procedure: as §1, §2, §3, §4

[7] = system: Hansenula polymorpha ATCC 26012; test: Oxidation of sec-alcohols to ketones by cell suspensions of yeasts; type: cell-based
[8] = system: Pichia sp. NRRL-Y-11328; test: as above; type: cell-based
[9] = system: Kloeckera sp. Strain A2 (NRRL Y-11,420); test: as above; type: cell-based
[10] = system: cell extracts of Candida utilis ATCC 26,387; test: NAD+-dependent oxidation of secondary alcohols by cell extracts of yeasts; type: biochemical; conditions: cell extracts, grown on methanol, NAD+; gas chromatography
[11] = system: cell extracts of Hansenula polymorpha ATCC 26,012; test: as above; type: biochemical; conditions: cell extracts, grown on methanol, NAD+; gas chromatography
[12] = system: cell extracts of Pichia sp. NRRL Y-11,328; test: as above; type: biochemical; conditions: grown on methanol, gas chromatography
[13] = system: cell extracts of Torulopsis sp. strain A1 NRRL Y-11,419; test: as above; type: biochemical; conditions: cell extracts, grown on methanol, NAD+; gas chromatography
[14] = system: secondary alcohol dehydrogenase; test: Activity of purified yeast-derived secondary alcohol dehydrogenase; type: biochemical, Pichia sp. NRRL Y-11,328; conditions: spectrophotometric

CCCCC(C)O (centres unmarked) [2-Hexanol, 2-hexanol]
Conversion Rates, sec-alcohol to methyl ketone ([1]; cells grown on methanol): 1.1 μmoles/hr/mg protein
Conversion Rates, sec-alcohol to methyl ketone ([1]; methyl formate-grown): 0.70 μmoles/hr/mg protein
Conversion Rates, sec-alcohol to methyl ketone ([1]; resting cells grown on methane): 0.12 μmoles/hr/mg protein
Conversion Rates, sec-alcohol to methyl ketone ([2]; cells grown on methanol): 0.9 μmoles/hr/mg protein
Conversion Rates, sec-alcohol to methyl ketone ([2]; methyl formate-grown): 0.72 μmoles/hr/mg protein
Conversion Rates, sec-alcohol to methyl ketone ([2]; resting cells grown on methane): 0.07 μmoles/hr/mg protein
Conversion Rates, sec-alcohol to methyl ketone ([3]; cells grown on methanol): 0.12 μmoles/hr/mg protein
Conversion Rates, sec-alcohol to methyl ketone ([3]; resting cells grown on methane): 0.1 μmoles/hr/mg protein
Conversion Rates, sec-alcohol to methyl ketone ([4]; cells grown on methanol): 1.3 μmoles/hr/mg protein
Conversion Rates, sec-alcohol to methyl ketone ([4]; resting cells grown on methane): 1.0 μmoles/hr/mg protein
Conversion Rates, sec-alcohol to methyl ketone ([5]; cells grown on methanol): 0.05 μmoles/hr/mg protein
Conversion Rates, sec-alcohol to methyl ketone ([5]; resting cells grown on methane): 0.065 μmoles/hr/mg protein
Conversion Rates, sec-alcohol to methyl ketone ([6]; cells grown on methanol): 0.04 μmoles/hr/mg protein
Conversion Rates, sec-alcohol to methyl ketone ([6]; resting cells grown on methane): 0.01 μmoles/hr/mg protein
Conversion Rate, sec-alcohol to ketone ([7]; growth substrate Ethanol): 0.54 μmoles/hr/mg of protein
Conversion Rate, sec-alcohol to ketone ([7]; growth substrate Methanol): 0.72 μmoles/hr/mg of protein
Conversion Rate, sec-alcohol to ketone ([7]; growth substrate Methylamine): 0.62 μmoles/hr/mg of protein
Conversion Rate, sec-alcohol to ketone ([7]; growth substrate Methylformate): 0.70 μmoles/hr/mg of protein
Conversion Rate, sec-alcohol to ketone ([7]; growth substrate Propylamine): 0.48 μmoles/hr/mg of protein
Conversion Rate, sec-alcohol to ketone ([8]; growth substrate Ethanol): 0.28 μmoles/hr/mg of protein
Conversion Rate, sec-alcohol to ketone ([8]; growth substrate Methanol): 0.50 μmoles/hr/mg of protein
Conversion Rate, sec-alcohol to ketone ([8]; growth substrate Methylamine): 0.31 μmoles/hr/mg of protein
Conversion Rate, sec-alcohol to ketone ([8]; growth substrate Methylformate): 0.48 μmoles/hr/mg of protein
Conversion Rate, sec-alcohol to ketone ([8]; growth substrate Propylamine): 0.21 μmoles/hr/mg of protein
Conversion Rate, sec-alcohol to ketone ([9]; growth substrate Ethanol): 0.12 μmoles/hr/mg of protein
Conversion Rate, sec-alcohol to ketone ([9]; growth substrate Methanol): 0.25 μmoles/hr/mg of protein
Conversion Rate, sec-alcohol to ketone ([9]; growth substrate Methylamine): 0.10 μmoles/hr/mg of protein
Conversion Rate, sec-alcohol to ketone ([9]; growth substrate Methylformate): 0.28 μmoles/hr/mg of protein
Conversion Rate, sec-alcohol to ketone ([9]; growth substrate Propylamine): 0.11 μmoles/hr/mg of protein
Conversion Rate, secondary alcohol to methylketone [10]: 0.45 μmoles/hr/mg Protein
Conversion Rate, secondary alcohol to methylketone [11]: 0.51 μmoles/hr/mg Protein
Conversion Rate, secondary alcohol to methylketone [12]: 0.60 μmoles/hr/mg Protein
Conversion Rate, secondary alcohol to methylketone [13]: 0.21 μmoles/hr/mg Protein
substrate specificity of purified yeast secondary alcohol dehydrogenase (in words) [14]: catalyzed the oxidation

CCCC(C)O (centres unmarked) [2-Pentanol, 2-pentanol]
Conversion Rates, sec-alcohol to methyl ketone ([1]; cells grown on methanol): 0.9 μmoles/hr/mg protein
Conversion Rates, sec-alcohol to methyl ketone ([1]; methyl formate-grown): 1.0 μmoles/hr/mg protein
Conversion Rates, sec-alcohol to methyl ketone ([1]; resting cells grown on methane): 0.82 μmoles/hr/mg protein
Conversion Rates, sec-alcohol to methyl ketone ([2]; cells grown on methanol): 2.9 μmoles/hr/mg protein
Conversion Rates, sec-alcohol to methyl ketone ([2]; methyl formate-grown): 1.5 μmoles/hr/mg protein
Conversion Rates, sec-alcohol to methyl ketone ([2]; resting cells grown on methane): 2.7 μmoles/hr/mg protein
Conversion Rates, sec-alcohol to methyl ketone ([3]; cells grown on methanol): 0.60 μmoles/hr/mg protein
Conversion Rates, sec-alcohol to methyl ketone ([3]; resting cells grown on methane): 0.5 μmoles/hr/mg protein
Conversion Rates, sec-alcohol to methyl ketone ([4]; cells grown on methanol): 3.5 μmoles/hr/mg protein
Conversion Rates, sec-alcohol to methyl ketone ([4]; resting cells grown on methane): 2.5 μmoles/hr/mg protein
Conversion Rates, sec-alcohol to methyl ketone ([5]; cells grown on methanol): 0.82 μmoles/hr/mg protein
Conversion Rates, sec-alcohol to methyl ketone ([5]; resting cells grown on methane): 0.80 μmoles/hr/mg protein
Conversion Rates, sec-alcohol to methyl ketone ([6]; cells grown on methanol): 0.45 μmoles/hr/mg protein
Conversion Rates, sec-alcohol to methyl ketone ([6]; resting cells grown on methane): 0.25 μmoles/hr/mg protein
Conversion Rate, sec-alcohol to ketone ([7]; growth substrate Ethanol): 1.1 μmoles/hr/mg of protein
Conversion Rate, sec-alcohol to ketone ([7]; growth substrate Methanol): 1.4 μmoles/hr/mg of protein
Conversion Rate, sec-alcohol to ketone ([7]; growth substrate Methylamine): 1.2 μmoles/hr/mg of protein
Conversion Rate, sec-alcohol to ketone ([7]; growth substrate Methylformate): 1.3 μmoles/hr/mg of protein
Conversion Rate, sec-alcohol to ketone ([7]; growth substrate Propylamine): 0.82 μmoles/hr/mg of protein
Conversion Rate, sec-alcohol to ketone ([8]; growth substrate Ethanol): 1.0 μmoles/hr/mg of protein
Conversion Rate, sec-alcohol to ketone ([8]; growth substrate Methanol): 1.2 μmoles/hr/mg of protein
Conversion Rate, sec-alcohol to ketone ([8]; growth substrate Methylamine): 0.72 μmoles/hr/mg of protein
Conversion Rate, sec-alcohol to ketone ([8]; growth substrate Methylformate): 0.98 μmoles/hr/mg of protein
Conversion Rate, sec-alcohol to ketone ([8]; growth substrate Propylamine): 0.60 μmoles/hr/mg of protein
Conversion Rate, sec-alcohol to ketone ([9]; growth substrate Ethanol): 1.0 μmoles/hr/mg of protein
Conversion Rate, sec-alcohol to ketone ([9]; growth substrate Methanol): 1.2 μmoles/hr/mg of protein
Conversion Rate, sec-alcohol to ketone ([9]; growth substrate Methylamine): 1.0 μmoles/hr/mg of protein
Conversion Rate, sec-alcohol to ketone ([9]; growth substrate Methylformate): 1.2 μmoles/hr/mg of protein
Conversion Rate, sec-alcohol to ketone ([9]; growth substrate Propylamine): 0.92 μmoles/hr/mg of protein
Conversion Rate, secondary alcohol to methylketone [10]: 0.82 μmoles/hr/mg Protein
Conversion Rate, secondary alcohol to methylketone [11]: 1.0 μmoles/hr/mg Protein
Conversion Rate, secondary alcohol to methylketone [12]: 1.2 μmoles/hr/mg Protein
Conversion Rate, secondary alcohol to methylketone [13]: 1.0 μmoles/hr/mg Protein
substrate specificity of purified yeast secondary alcohol dehydrogenase (in words) [14]: catalyzed the oxidation
